Assay results published in US7998978B2 (Pfizer Inc., priority 2006, dated 2011).

Biological target: T1, JNK1α1 (Homo sapiens, UniProt P45983)
T1 construct: catalytic domain containing amino acids 1-364 and N-terminal hexahistidine tag; hexahistidine (His6) (N); made in house; host or cells: E. coli BL21 (DE3)
Assay: Coupled spectrophotometric (PK/LDH) JNK1α1 assay: % inhibition and Ki determination
Assay type: biochemical
Conditions: @1 uM; read-out: % Inhibition JNK-1
Procedure, shortened: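 Initial rates were taken from the absorbance decrease at 340 nm at 30° C. Ki was fitted with a tight-binding model over 11 concentrations (top 100 μM); single-point inhibition was tested at 1 or 10 μM.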

T1 sequence (P45983 1-364): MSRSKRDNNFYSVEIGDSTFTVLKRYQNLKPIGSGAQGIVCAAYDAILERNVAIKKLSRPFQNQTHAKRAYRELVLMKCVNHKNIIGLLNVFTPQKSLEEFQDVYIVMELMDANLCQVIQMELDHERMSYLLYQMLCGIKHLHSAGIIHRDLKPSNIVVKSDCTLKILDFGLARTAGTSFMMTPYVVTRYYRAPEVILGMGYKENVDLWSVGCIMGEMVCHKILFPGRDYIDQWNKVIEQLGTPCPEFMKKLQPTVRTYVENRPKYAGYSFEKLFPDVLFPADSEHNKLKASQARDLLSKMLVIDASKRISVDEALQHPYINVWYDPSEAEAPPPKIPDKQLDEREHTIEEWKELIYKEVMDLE

SMILES | inhibition at 1 µM
O=C(NC1CCCOC1)c1cccc2cnc(N[C@H]3CC[C@H](O)CC3)nc12 (stereo partly drawn) [Example 488, 2-[(trans-4-hydroxycyclohexyl)amino]-N-(tetrahydro-2H-pyran-3-yl)quinazoline-8-carboxamide] | 40%
CCn1cc(CNC(=O)c2cccc3cnc(N[C@H]4CC[C@H](O)CC4)nc23)cn1 [Example 489, N-[(1-ethyl-1H-pyrazol-4-yl)methyl]-2-[(trans-4-hydroxycyclohexyl)amino]quinazoline-8-carboxamide] | 16%
O=C(NCCn1ccnc1)c1cccc2cnc(N[C@H]3CC[C@H](O)CC3)nc12 [Example 491, 2-[(trans-4-hydroxycycbohexyl)amino]-N-[2-(1H-imidazol-1-yl)ethyl]quinazoline-8-carboxamide] | 13%
O=C(NCc1nncn1C1CCCCC1)c1cccc2cnc(N[C@H]3CC[C@H](O)CC3)nc12 [Example 497, N-[(4-cyclohexyl-4H-1,2,4-triazol-3-yl)methyl]-2-[(trans-4-hydroxycyclohexyl)amino]quinazoline-8-carboxamide] | 13%
Cc1ccn(CCNC(=O)c2cccc3cnc(N[C@H]4CC[C@H](O)CC4)nc23)n1 [Example 498, 2-[(trans-4-hydroxycyclohexyl)amino]-N-[2-(3-methyl-1H-pyrazol-1-yl)ethyl]quinazoline-8-carboxamide] | 11%
O=C(NCCc1cn2cccnc2n1)c1cccc2cnc(N[C@H]3CC[C@H](O)CC3)nc12 [Example 499, 2-[(trans-4-hydroxycyclohexyl)amino]-N-(2-imidazo[1,2-a]pyrimidin-2-ylethyl)quinazoline-8-carboxamide] | 8%
COC[C@H]1CCC[C@H]1NC(=O)c1cccc2cnc(N[C@H]3CC[C@H](O)CC3)nc12 [Example 506, 2-[(trans-4-hydroxycyclohexyl)amino]-N-[(1R,2S)-2-(methoxymethyl)cyclopentyl]quinazoline-8-carboxamide] | 37%
CCN1CC(CNC(=O)c2cccc3cnc(N[C@H]4CC[C@H](O)CC4)nc23)CC1=O (stereo partly drawn) [Example 508, N-[(1-ethyl-5-oxopyrrolidin-3-yl)methyl]-2-[(trans-4-hydroxycyclohexyl)amino]quinazoline-8-carboxamide] | 21%
O=C(NCc1nc(-c2ccccc2)no1)c1cccc2cnc(N[C@H]3CC[C@H](O)CC3)nc12 [Example 513, 2-[(trans-4-hydroxycyclohexyl)amino]-N-[(3-phenyl-1,2,4-oxadiazol-5-yl)methyl]quinazoline-8-carboxamide] | 21%

Continued, values first:

inhibition at 1 µM | SMILES
11% | O=C(NCCc1nc2ccccc2[nH]1)c1cccc2cnc(N[C@H]3CC[C@H](O)CC3)nc12 [Example 480, N-[2-(1H-benzimidazol-2-yl)ethyl]-2-[(trans-4-hydroxycyclohexyl)amino]quinazoline-8-carboxamide]
14% | Cc1cccc(CNC(=O)c2cccc3cnc(N[C@H]4CC[C@H](O)CC4)nc23)n1 [Example 481, 2-[(trans-4-hydroxycyclohexyl)amino]-N-[(6-methylpyridin-2-yl)methyl]quinazoline-carboxamide]
13% | CC(Cn1cccn1)NC(=O)c1cccc2cnc(N[C@H]3CC[C@H](O)CC3)nc12 (stereo partly drawn) [Example 482, 2-[(trans-4-hydroxycyclohexyl)amino]-N-[1-methyl-2-(1H-pyrazol-1-yl)ethyl]quinazoline-8-carboxamide]
12% | CC(NC(=O)c1cccc2cnc(N[C@H]3CC[C@H](O)CC3)nc12)c1ccncn1 (stereo partly drawn) [Example 492, 2-[(trans-4-hydroxycyclohexyl)amino]-N-(1-pyrimidin-4-ylethyl)quinazoline-8-carboxamide]
11% | O=C(NCCN1CCCC1=O)c1cccc2cnc(N[C@H]3CC[C@H](O)CC3)nc12 [Example 493, 2-[(trans-4-hydroxycyclohexyl)amino]-N-(2-(2-oxopyrrolidin-1-yl)ethyl]quinazoline-8-carboxamide]
16% | O=C(NCCc1cn2ccccc2n1)c1cccc2cnc(N[C@H]3CC[C@H](O)CC3)nc12 [Example 494, 2-[(trans-4-hydroxycyclohexyl)amino]-N-(2-imidazol[1,2-a]pyridin-2-ylethyl)quinazoline-8-carboxamide]
41% | CCn1nc(C)c(CNC(=O)c2cccc3cnc(N[C@H]4CC[C@H](O)CC4)nc23)c1C [Example 496, N-[(1-ethyl-3,5-dimethyl-1H-pyrazol-4-yl)methyl]-2-[(trans-4-hydroxycyclohexyl)amino]quinazoline-8-carboxamide]
25% | O=C(NCCn1cccn1)c1cccc2cnc(N[C@H]3CC[C@H](O)CC3)nc12 [Example 507, 2-[(trans-4-hydroxycyclohexyl)amino]-N-[2-(1H-pyrazol-1-yl)ethyl]quinazoline-8-carboxamide]

Same assay, conditions: @10 uM; read-out: % Inhibition JNK-1

SMILES | inhibition at 10 µM
Cc1cc(C)n(CC(C)NC(=O)c2cccc3cnc(N[C@H]4CC[C@H](O)CC4)nc23)n1 (stereo partly drawn) [Example 483, N-[2-(3,5-dimethyl-1H-pyrazol-1-yl)-1-methylethyl]-2-[(trans-4-hydroxycyclohexyl)amino]quinazoline-8-carboxamide] | 71%
CCc1cc(CNC(=O)c2cccc3cnc(N[C@H]4CC[C@H](O)CC4)nc23)on1 [Example 484, N-[(3-ethylisoxazol-5-yl)methyl]-2-[(trans-4-hydroxycyclohexyl)amino]quinazoline-8-carboxamide] | 57%
O=C(NCCN1CCCCC1=O)c1cccc2cnc(N[C@H]3CC[C@H](O)CC3)nc12 [Example 486, 2-[(trans-4-hydroxycyclohexyl)amino]-N-[2-(2-oxopiperidin-1-yl)ethyl]quinazoline-8-carboxamide] | 50%
Cc1ccc(C(C)NC(=O)c2cccc3cnc(N[C@H]4CC[C@H](O)CC4)nc23)cn1 (stereo partly drawn) [Example 487, 2-[(trans-4-hydroxycyclohexyl)amino]-N-[1-(6-methylpyridin-3-yl)ethyl]quinazoline-8-carboxamide] | 51%
O=C(NCc1nnc(C2CC2)[nH]1)c1cccc2cnc(N[C@H]3CC[C@H](O)CC3)nc12 [Example 490, N-[(5-cyclopropyl-4H-1,2,4-triazol-3-yl)methyl]-2-[(trans-4-hydroxycyclohexyl)amino]quinazoline-8-carboxamide] | 40%
CC(C)c1noc(CNC(=O)c2cccc3cnc(N[C@H]4CC[C@H](O)CC4)nc23)n1 [Example 500, 2-[(trans-4-hydroxycyclohexyl)amino]-N-[(3-isopropyl-1,2,4-oxadiazol-5-yl)methyl]quinazoline-8-carboxamide] | 38%
CC(C)c1nc(CNC(=O)c2cccc3cnc(N[C@H]4CC[C@H](O)CC4)nc23)no1 [Example 502, 2-[(trans-4-hydroxycyclohexyl)amino]-N-[(5-isopropyl-1,2,4-oxadiazol-3-yl)methyl]quinazoline-8-carboxamide] | 50%
CC(C)(C)C(=O)N1CCC(NC(=O)c2cccc3cnc(N[C@H]4CC[C@H](O)CC4)nc23)C1 (stereo partly drawn) [Example 504, N-[1-(2,2-dimethylpropanoyl)pyrrolidin-3-yl]-2-[(trans-4-hydroxycyclohexyl)amino]quinazoline-8-carboxamide] | 40%
CC(=O)N1CCC(CNC(=O)c2cccc3cnc(N[C@H]4CC[C@H](O)CC4)nc23)CC1 [Example 505, N-[(1-acetylpiperidin-4-yl)methyl]-2-[(trans-4-hydroxycyclohexyl)amino]quinazoline-8-carboxamide] | 58%
CN(C)C(=O)CNC(=O)c1cccc2cnc(N[C@H]3CC[C@H](O)CC3)nc12 [Example 509, N-[2-(dimethylamino)-2-oxoethyl]-2-[(trans-4-hydroxycyclohexyl)amino]quinazoline-8-carboxamide] | 49%
Cc1nnc(C(C)NC(=O)c2cccc3cnc(N[C@H]4CC[C@H](O)CC4)nc23)[nH]1 (stereo partly drawn) [Example 510, 2-[(trans-4-hydroxycyclohexyl)amino]-N-[1-(5-methyl-4H-1,2,4-triazol-3-yl)ethyl]quinazoline-8-carboxamide] | 25%
Cc1nnc(CNC(=O)c2cccc3cnc(N[C@H]4CC[C@H](O)CC4)nc23)[nH]1 [Example 511, 2-[(trans-4-hydroxycyclohexyl)amino]-N-[(5-methyl-4H-1,2,4-triazol-3-yl)methyl]quinazoline-8-carboxamide] | 47%
Cc1cc(C)nc(CNC(=O)c2cccc3cnc(N[C@H]4CC[C@H](O)CC4)nc23)n1 [Example 512, N-[(4,6-dimethylpyrimidin-2-yl)methyl]-2-[(trans-4-hydroxycyclohexyl)amino]quinazoline-8-carboxamide] | 31%

Second part, the compound after the results:

inhibition at 10 µM | SMILES
72% | Cc1nccn1CCNC(=O)c1cccc2cnc(N[C@H]3CC[C@H](O)CC3)nc12 [Example 485, 2-[(trans-4-hydroxycyclohexyl)amino]-N-[2-(2-methyl-1H-imidazol-1-yl)ethyl]quinazoline-8-carboxamide]
76% | Cc1cccnc1CC(C)NC(=O)c1cccc2cnc(N[C@H]3CC[C@H](O)CC3)nc12 (stereo partly drawn) [Example 495, 2-[(trans-4-hydroxycyclohexyl)amino]-N-(1-methyl-2-(3-methylpyridin-2-yl)ethyl]quinazoline-8-carboxamide]
60% | O=C(NCc1noc(-c2ccccc2)n1)c1cccc2cnc(N[C@H]3CC[C@H](O)CC3)nc12 [Example 501, 2-[(trans-4-hydroxycyclohexyl)amino]-N-[(5-phenyl-1,2,4-oxadiazol-3-yl)methyl]quinazoline-8-carboxamide]
54% | CC(C)(C)N1CC(CNC(=O)c2cccc3cnc(N[C@H]4CC[C@H](O)CC4)nc23)CC1=O (stereo partly drawn) [Example 503, N-[(1-tert-butyl-5-oxopyrrolidin-3-yl)methyl]-2-[(trans-4-hydroxycyclohexyl)amino]quinazoline-8-carboxamide]
